Test results: patent US8058292B2, “Therapeutic agents useful for treating pain” (Purdue Pharma L.P., priority 2003, dated 2011)

Target: T1, rat mGluR5 (Rattus norvegicus, UniProt P31424)
T1 construct: expressed in transfected cells; host or cells: CHO cells (CHO-rat mGluR5 line, kept under Geneticin selection)
Assay: Calcium mobilization flux (FLIPR) in CHO-rat mGluR5 cells in the presence of glutamate
Type: cell-based
Details: 10 uM glutamate, Fluo 4 calcium flux, mean of 4 experiments
Experimental: 40,000 CHO-rat mGluR5 cells/well were plated into 96 well plate (Costar 3409, Black, clear bottom, 96 well, tissue culture treated) for an overnight incubation in Dulbecco's Modified Eagle's Medium (DMEM, pH 7.4) and supplemented with glutamine, 10% FBS, 1% Pen/Strep, and 500 ug/mL Geneticin. CHO-rat mGluR5 cells were washed and treated with Optimem medium and were incubated for 1-4 hours prior to loading cells. […]
The plates containing the CHO-rat mGluR5 cells were transferred to a FLIPR for the assessment of calcium mobilization flux in the presence of glutamate and in the presence or absence of test compounds. After monitoring fluorescence for 15 seconds to establish a baseline, DMSO solutions containing various concentrations of the test compound diluted in loading buffer (0.05 mL of 4× dilutions for the competition curves) were added to the cell plate and fluorescence was monitored for 2 minutes. […] Plate fluorescence was then monitored for an additional 60 seconds after agonist addition. […] In each experiment, fluorescence was monitored as a function of time and the data analyzed using Microsoft Excel and GraphPad Prism. […] In each experiment, each data point was determined at least two times.

T1 sequence (P31424 21-1203): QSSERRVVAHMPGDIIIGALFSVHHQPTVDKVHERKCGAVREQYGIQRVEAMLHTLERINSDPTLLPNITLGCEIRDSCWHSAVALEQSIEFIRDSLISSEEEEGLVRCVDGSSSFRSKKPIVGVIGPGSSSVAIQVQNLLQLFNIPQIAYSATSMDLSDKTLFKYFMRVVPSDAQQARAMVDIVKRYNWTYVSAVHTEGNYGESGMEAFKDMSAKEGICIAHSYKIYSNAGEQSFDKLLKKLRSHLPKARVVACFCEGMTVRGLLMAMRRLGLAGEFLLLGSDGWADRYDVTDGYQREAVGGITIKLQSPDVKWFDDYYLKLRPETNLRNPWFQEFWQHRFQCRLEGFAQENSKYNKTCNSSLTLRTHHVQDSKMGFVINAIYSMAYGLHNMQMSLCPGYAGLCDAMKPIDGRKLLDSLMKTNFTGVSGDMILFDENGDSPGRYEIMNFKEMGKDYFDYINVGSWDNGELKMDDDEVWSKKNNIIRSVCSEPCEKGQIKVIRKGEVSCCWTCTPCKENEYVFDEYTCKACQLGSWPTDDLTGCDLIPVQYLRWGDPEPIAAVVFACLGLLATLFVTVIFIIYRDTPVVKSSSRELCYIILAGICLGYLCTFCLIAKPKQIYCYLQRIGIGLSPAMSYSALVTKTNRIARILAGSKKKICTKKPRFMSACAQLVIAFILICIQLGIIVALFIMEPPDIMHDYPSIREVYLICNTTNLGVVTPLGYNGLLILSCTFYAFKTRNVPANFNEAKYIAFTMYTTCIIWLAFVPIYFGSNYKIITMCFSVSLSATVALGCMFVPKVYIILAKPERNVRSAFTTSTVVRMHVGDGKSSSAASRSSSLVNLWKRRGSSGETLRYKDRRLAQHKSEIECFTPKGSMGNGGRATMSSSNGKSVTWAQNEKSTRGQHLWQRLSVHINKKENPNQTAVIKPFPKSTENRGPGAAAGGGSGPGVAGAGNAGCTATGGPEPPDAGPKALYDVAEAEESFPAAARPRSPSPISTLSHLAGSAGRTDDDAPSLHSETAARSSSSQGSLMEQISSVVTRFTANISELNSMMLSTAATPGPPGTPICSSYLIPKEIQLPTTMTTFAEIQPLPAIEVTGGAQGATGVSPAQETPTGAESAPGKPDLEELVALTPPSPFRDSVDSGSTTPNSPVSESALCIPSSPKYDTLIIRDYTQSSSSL

IC50: 110 ± 17.9 nM
SMILES: O=C(C#Cc1ccccc1)N1CC(Nc2ncccc2[N+](=O)[O-])C1 [AAB(Ib)]
